A value given as a limit tells only on which side of the number the result lay.

Consider 14 compounds from ChEMBL document CHEMBL1759984, “Synthesis and structure-activity relationships of phenylpropanoid amides of serotonin on tyrosinase inhibition” (Bioorg Med Chem Lett, 2011).

The subject of test [1] is Radical scavenging activity.
Description: Antioxidant activity assessed as DPPH radical scavenging activity by spectrophotometry
The next test deals with T1, Tyrosinase (Agaricus bisporus, UniProt O42713).
T1 sequence (O42713 whole entry): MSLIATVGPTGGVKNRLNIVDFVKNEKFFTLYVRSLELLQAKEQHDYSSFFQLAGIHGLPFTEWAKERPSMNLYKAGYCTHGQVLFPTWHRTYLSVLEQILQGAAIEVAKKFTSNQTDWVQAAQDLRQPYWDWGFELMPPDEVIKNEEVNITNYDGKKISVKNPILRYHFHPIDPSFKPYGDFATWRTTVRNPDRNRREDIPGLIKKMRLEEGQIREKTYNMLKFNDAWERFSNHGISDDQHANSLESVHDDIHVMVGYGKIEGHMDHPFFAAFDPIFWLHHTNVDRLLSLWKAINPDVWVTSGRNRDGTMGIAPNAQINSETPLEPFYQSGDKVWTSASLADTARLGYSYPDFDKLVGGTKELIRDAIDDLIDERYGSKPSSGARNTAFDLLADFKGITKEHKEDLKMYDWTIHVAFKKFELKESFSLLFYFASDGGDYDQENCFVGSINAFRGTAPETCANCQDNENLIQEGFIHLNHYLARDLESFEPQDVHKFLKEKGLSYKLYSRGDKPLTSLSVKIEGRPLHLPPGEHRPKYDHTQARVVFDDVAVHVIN

Description for Tyrosinase: Inhibition of mushroom tyrosinase after 25 mins by spectrophotometry

Turning to `COc1cc(/C=C/C(=O)NCCc2c[nH]c3ccc(O)cc23)cc(OC)c1O` [N-SINAPOYL SEROTONIN], the EC50 (as a rule, the concentration at which the effect is half-maximal) in test [1] was determined as 30.7 µM. In addition, the IC50 (as a rule, the concentration needed to halve the response being measured) against Tyrosinase was over 350 µM.

For the compound `COc1cc(/C=C/C(=O)NCCc2c[nH]c3ccc(O)cc23)ccc1O` [N-FERULOYL SEROTONIN], the EC50 in test [1] worked out at 22.8 µM. At Tyrosinase, the IC50 worked out at 8 µM.

In test [1], `COc1cc(/C=C/C(=O)O)ccc1O` [FERULATE] returned an EC50 of over 250 µM. Further, the half-maximal inhibitory concentration (IC50) against Tyrosinase was over 350 µM.

In the case of `O=C(O)/C=C/c1ccc(O)cc1` [COUMARIC ACID], the EC50 in test [1] is over 250 µM. The same compound displayed an IC50 against Tyrosinase of 121 µM.

In the case of `O=C(/C=C/c1ccc(O)c(O)c1)NCCc1c[nH]c2ccc(O)cc12` [N-CAFFEOYLSEROTONIN], the EC50 in test [1] was 19.4 µM. The compound further registered a concentration for half-maximal inhibition (IC50) against Tyrosinase of 278 µM.

Consider `COc1ccc(/C=C/C(=O)NCCc2c[nH]c3ccc(O)cc23)cc1OC` [N-3,4-DIMETHOXY CINNAMOYL SEROTONIN], for which, in test [1], the EC50 was found to be 28.1 µM. In addition, the IC50 at Tyrosinase is 322 µM.

With `COc1ccc(/C=C/C(=O)O)cc1` [4-METHOXYCINNAMIC ACID], in test [1], the EC50 is over 250 µM. In addition, at Tyrosinase, the half-inhibitory concentration (IC50) was over 350 µM.

Take `COc1cc(/C=C/C(=O)O)cc(OC)c1O` [SINAPINATE]: the 50% effective concentration (EC50) in test [1] was over 250 µM. For the same compound, the IC50 at Tyrosinase is over 351 µM.

For the compound `O=C(O)CCC(=O)NCCc1c[nH]c2ccc(O)cc12` [BUFOBUTANOIC ACID], in test [1], a half-maximal response (EC50) required 38.3 µM. This compound came in with a concentration for half-maximal inhibition (IC50) against Tyrosinase of over 350 µM.

In test [1], `NCCc1c[nH]c2ccc(O)cc12` [SEROTONIN] came in with an EC50 of over 250 µM. This compound gave an IC50 on Tyrosinase of over 350 µM.

As for `O=C(/C=C/c1ccc(O)cc1)NCCc1c[nH]c2ccc(O)cc12` [N-P-COUMAROYL SEROTONIN], it took 24.7 µM to reach a half-maximal effect in test [1] (EC50). In addition, the IC50 on Tyrosinase came out at 8.8 µM.

Take `COc1ccc(/C=C/C(=O)NCCc2c[nH]c3ccc(O)cc23)cc1` [N-P-METHOXY CINNAMOYL SEROTONIN]: in test [1], the EC50 was found to be 34.2 µM. The compound also gave an IC50 at Tyrosinase of 23.8 µM.

Regarding `O=C(/C=C/c1ccccc1)NCCc1c[nH]c2ccc(O)cc12` [N-CINNAMOYL SEROTONIN], in test [1], the response was half-maximal at 22.2 µM (EC50). Also, at Tyrosinase, the IC50 turned out to be 40.4 µM.

Compound `COc1ccc(/C=C/C(=O)NCCc2c[nH]c3ccc(O)cc23)cc1O` [N-ISOFERULOYL SEROTONIN] yielded an EC50 in test [1] of 35.1 µM. Further, it took 5.4 µM to reach half-maximal inhibition at Tyrosinase (IC50).
